According to patent US20210308211A1, “METHOD OF TREATING VIRAL INFECTIONS” (priority 2020, published 2021):
Where “and” joins values, the source holds several entries; their conditions need not be identical. Equal entries are not always repeated. Non-standard residues stand in square brackets, D forms with d. Residues, ends and D or L forms follow the SMILES beside them. pS = N[C@@H](COP(=O)(O)O)C(=O)O

Columns and labels:
Format in all cases: in vivo, mouse
C57BL/6 mice = experiment: K/B×N serum transfer arthritis, preventive protocol
Description: The TCR transgenic mice expressing the KRN and the MHC class II A^g7 molecule (K/B×N mice) have developed a severe inflammatory arthritis. The administration of serum of these mice to healthy recipient mice causes inflammatory arthritis over a period of about 15 days with a peak ignition around day 7 post-injection.
Two mouse serum administrations from K/B×N were performed (day 0 and day 2). The injection of serum (100 μl/mouse) is performed by intra-peritoneal (ip) injection in mice C57BL/6 (or B6) for 8 weeks (n=10); untreated mouse (n=10).
The P140 peptide (100 μg/100 μl; iv retro-orbital) was administered as follows:
Curative treatment: Injection at day 1 and day 4, to guide the peak of inflammatory disease. Preventive treatment: Injection at day −7 and day −2. Bleeding S0 (at day 0) is followed by bloodletting conducted every six days to dispose of serum. The study ends when inflammation has returned to its basal level, to around day 20 (see FIG. 19).
During the peak of inflammation, every day the animals are evaluated, and swelling score of articulation is established. It is ranged from 0 to 4 and based on a joint observation of the animal. In practice, this score is given for each leg (4 values) and these values are added together to get a general score that ranges from 0 to 16 (FIG. 20).

CD4+ T splenocytes = experiment: Collagen-induced arthritis (CIA) DBA/1 mice, ex vivo T splenocyte proliferation with CII (CFSE, FACS)
Description: Next, P140 peptide was administered in a model of mice that develop a RA-like disease (we anticipated to use this mouse model as a negative control of MRL/lpr-lupus prone mice). This model, called collagen-induced arthritis (CIA) mouse model, is the most commonly studied autoimmune model of RA. In this model, autoimmune arthritis is induced by immunizing DBA/1 mice with an emulsion of complete Freund's adjuvant (CFA) and type II collagen (CII), and typically, the first signs of arthritis appear in 21-28 days after immunization (Brand et al., 2007). CIA shares several pathological features with human RA, and CII is a major protein in cartilage, the target tissue of RA. Pathological features include synovial hyperplasia, mononuclear cell infiltration, and cartilage degradation. Susceptibility in these mice is linked to the expression of specific MHC class II genes, DBA/1 have H-2^q haplotype.
P140 peptide was thus administrated intravenously to DBA/1 mice at day −1, +7, +14 and +20 in a setting close to the one we used in MRL/lpr mice (100 μg/injection/mouse). CII in CFA was injected at days +1 and +21 (200 μg, intradermal route). Mouse weight and their clinical score were followed using very classical procedure. Biological parameters were also evaluated (i.e. T cell response, antibody response, joint histology, etc).

Balb/c mice = experiment: 31-day HDM-induced asthma model, BAL cell counts; conditions: for B cells / DCs / Eosinophils / Macrophages / Neutrophils / T cells / Total cells: BAL, per mouse
Description: The aim of this study was to evaluate the effect of the P140 phosphopeptide administered systemically (intravenously) in a 31-day model of HDM-induced asthma in mice. The P140 phosphopeptide was solubilized in sterile water (Braun) and 10x concentrate sterile saline was added to adjust osmolarity to 300 mosm. Osmolarity was controlled with a micro osmometer (Löser, type 15) and validated (303 mosm). The P140 phosphopeptide was used in vivo at the dose of 4 mg/kg by intravenous (i.v.) routes. Control animals received equivalent volumes (2 ml/kg) of saline (Table 8).
Nine-week-old male Balb/c mice were sensitized by intranasal (i.n.) administration of HDM extract (Stallergenes): 1 μg in 25 μl saline on days 0, 1, 2, 3, 4, and 10 μg on days 14 and 21. Mice were challenged by i.n. administration of HDM (1 μg) and/or saline on days 28, 29 and 30. Mice were treated by i.v. injection (2 ml/kg) of P140 or solvent on day 25 (see FIG. 12).
BAL was performed after airway responsiveness measurement twenty-four hours after HDM challenge as described (Daubeuf et al. 2012). Mice were anaesthetized IP (Ketamine 150 mg/kg—Xylasine 10 mg/kg). Blood was collected from the heart, centrifuged at 10,000 g for 2 min and serum stored at −20° C.
After semi-excision of the trachea, a plastic cannula was inserted, and airspace washed with 0.5 ml of 0.9% NaCl injected with a 1 ml syringe. This procedure was performed 10 times. The initial concentrated supernatant of the 2 first lavages (volume=2×0.5 ml administered, approximately 0.5 ml recovered) was collected for cytokine measurements. The remaining BAL fluid was centrifuged (300 g for 5 min, 4° C.), and cell pellets pooled. The cell pellet was suspended in 500 μl of 0.9% NaCl and used for total cell counts evaluated on a Muse® Cell Analyser (Millipore). Differential cell counts were assessed by flow cytometry (LSRII® cytometer, BD Bioscience). BAL cells were added with FCblock (0.5 μl, 553142, BD Bioscience) in a black microplate, incubated for 20 min at room temperature. Then, marker antibodies were added: CD11c-FITC (557400, BD bioscience), Gr-1-PeeFluor610 (61-5931-82, eBioscience), F4/80-PE (12-4801-82, eBioscience), CD11b-APC-Cy7 (557657, BD bioscience), CD45-AlexaFluor700 (103128, BioLegend), CD3-BV605 (564009, BD bioscience), CD19-PE-Cy7 (552854, BD bioscience). Antibodies were incubated with BAL cells for 30 min at room temperature before DAPI (5 μl, BD bioscience) addition, and flow cytometry was performed immediately.
All mice were sensitized to HDM on days 0, 1, 2, 3, 4, 14, 21, and challenged either with saline ([…]) or HDM (challenge with allergen). Results are presented as means±SEM. Differences between groups were tested for statistical significance using Student's t test for inflammatory cells and a two-way ANOVA followed by Bonferroni post-test for airway responses.

[1] = HDM + P140 (i.v. 4 mg/kg day 25, HDM-challenged)
[2] = P140 i.v. 4 mg/kg day 25, HDM-sensitized, saline-challenged (chronic asthma)
[3] = chronic asthma (saline challenge), 4 mg/kg i.v. day 25, BAL, non-significant
[4] = chronic asthma (saline challenge), 4 mg/kg i.v. day 25, BAL, p<0.05

CC[C@H](C)[C@H](NC(=O)[C@H](Cc1ccccc1)NC(=O)[C@H](C)NC(=O)[C@H](Cc1ccc(O)cc1)NC(=O)CNC(=O)[C@H](CCCNC(=N)N)NC(=O)[C@@H]1CCCN1C(=O)[C@H](CCCCN)NC(=O)CNC(=O)[C@H](COP(=O)(O)O)NC(=O)[C@H](CCCNC(=N)N)NC(=O)[C@H](CCCCN)NC(=O)[C@H](CO)NC(=O)[C@H](Cc1ccc(O)cc1)NC(=O)[C@@H](NC(=O)[C@H](CCSC)NC(=O)[C@H](Cc1c[nH]cn1)NC(=O)[C@@H](NC(=O)[C@@H](N)CCCNC(=N)N)[C@@H](C)CC)C(C)C)C(=O)N[C@@H](CCC(=O)O)C(=O)N[C@@H](Cc1ccc(O)cc1)C(=O)O [Compound P140] (H-RIHMVYSKR[pS]GKPRGYAFIEY-OH; N-terminus and C-terminus assumed)
Clinical signs (swelling joints, weight loss, inflammation score) (in words) (C57BL/6 mice; K/B×N model): tend to be attenuated
Weight loss (C57BL/6 mice; preventive protocol (injection day −7 and day −2), day 1 to day 7, controls 10%): 5%
Increase in size of joints, right back legs (C57BL/6 mice; preventive protocol, day 0 to day 7, control mice about 22%): around 12%
Increase in size of the joint, left hind paws (C57BL/6 mice; preventive protocol, day 0 to day 7, controls about 30%): about 15%
General inflammation score, maximum (C57BL/6 mice; preventive protocol, sum of four legs, controls around 7, p=0.0156): ≤ 5
Increase in size of articulation, left front leg (C57BL/6 mice; preventive protocol, controls 45%, P=0.0397): 20%
Swelling in the joints of right front leg (C57BL/6 mice; preventive protocol, controls nearly 45%, p=0.0069): +20%
CD4+ T splenocytes proliferation (CD4+ T splenocytes; DBA/1 CIA mice, 100 μg/injection i.v. day −1, +7, +14, +20, ex vivo 100 μg CII/mL): strongly diminished
CD8+ T cells proliferation (CD4+ T splenocytes; same conditions as CD4+ T cells): No effect
B cells (Balb/c mice; [1]): 59092 and 102246 and 42085 and 25443 and 116814 and 115000 and 53947 and 170980
DCs (Balb/c mice; [1]): 1034 and 2238 and 1793 and 242 and 586 and 1350 and 733 and 1928
Eosinophils (Balb/c mice; [1]): 955824 and 1404942 and 636065 and 342046 and 1283190 and 1036803 and 538210 and 1010686
Macrophages (Balb/c mice; [1]): 58705 and 118771 and 314326 and 126002 and 34364 and 38709 and 29121 and 73491
Neutrophils (Balb/c mice; [1]): 606700 and 510027 and 500004 and 147616 and 371317 and 487119 and 284503 and 24426
T cells (Balb/c mice; [1]): 400329 and 735865 and 383074 and 243813 and 469834 and 502985 and 334784 and 1056303
Total cells (Balb/c mice; [1]): 2140000 and 2992000 and 2190000 and 1010000 and 2310000 and 2220000 and 1270000 and 2410000
B cells (Balb/c mice; [2]): 2297 and 44688 and 22879 and 11101 and 7660
DCs (Balb/c mice; [2]): 0 and 484 and 461 and 319 and 160
Eosinophils (Balb/c mice; [2]): 124514 and 450346 and 448074 and 205568 and 239527
Macrophages (Balb/c mice; [2]): 130734 and 267685 and 360987 and 177815 and 73725
Neutrophils (Balb/c mice; [2]): 2584 and 35734 and 23986 and 34836 and 2394
T cells (Balb/c mice; [2]): 57711 and 323523 and 294011 and 208439 and 86810
Total cells (Balb/c mice; [2]): 448000 and 1390000 and 1510000 and 815000 and 484000
Inflammatory cell recruitment in BAL (in words) (Balb/c mice; HDM-challenged mice, in comparison to the solvent group): no effect
Number of B cells, change vs solvent group (Balb/c mice; [3]): −40%
Number of eosinophils, change vs solvent group (Balb/c mice; [3]): −25%
Number of macrophages, increase vs solvent group (Balb/c mice; [4]): 4.5 fold
Number of neutrophils, change vs solvent group (Balb/c mice; [4]): −71%
